# Laboratory results as given in ChEMBL document CHEMBL1148070, “Cytotoxic saponins from New Zealand Myrsine species” (1994).
# Calls of active or inactive are those of the source. The calls are words filed in the database; no cut-off is given here.
# Tests used:
# Poliovirus 1 = assay: Antiviral activity against Human poliovirus 1 assessed as inhibition of virus-induced cytopathic effect 40 ug/disk; type: functional, organism-based
# Human alphaherpesvirus 1 = assay: Antiviral activity against HSV1 assessed as inhibition of virus-induced cytopathic effect 40 ug/disk; type: functional, organism-based
# P388 = assay: Cytotoxicity against mouse P388 cells; type: functional; details: read-out: ID50 (the source's name)
SMILES,inhibition (Poliovirus 1),inhibition (Human alphaherpesvirus 1),IC50 (P388) [µg/mL]
C[C@@H]1O[C@@H](O[C@H]2[C@H](O[C@H]3CO[C@@H](O[C@H]4CC[C@]5(C)[C@H]6CC[C@]78OC[C@@]9(CC[C@](C)(C=O)C[C@H]97)[C@H](O)C[C@@]8(C)[C@]6(C)CC[C@H]5C4(C)C)[C@H](O[C@@H]4O[C@H](CO)[C@@H](O)[C@H](O)[C@H]4O)[C@H]3O)O[C@H](CO)[C@@H](O)[C@@H]2O)[C@H](O)[C@H](O)[C@H]1O [ARDISIACRISPIN B],Active,Active,8.6
C[C@@H]1O[C@@H](O[C@H]2[C@H](O[C@H]3CO[C@@H](O[C@H]4CC[C@]5(C)[C@H]6CC[C@]78OC(=O)[C@@]9(CCC(C)(C)C[C@H]97)[C@H](O)C[C@@]8(C)[C@]6(C)CC[C@H]5C4(C)C)[C@H](O[C@@H]4O[C@H](CO)[C@@H](O)[C@H](O)[C@H]4O)[C@H]3O)O[C@H](CO)[C@@H](O)[C@@H]2O)[C@H](O)[C@H](O)[C@H]1O,Active,Active,10.2
CC1(C)CC[C@]23CO[C@@]4(CC[C@@H]5[C@@]6(C)CC[C@H](O[C@@H]7OC[C@H](O[C@@H]8O[C@H](CO)[C@@H](O)[C@H](O)[C@H]8O[C@@H]8OC[C@@H](O)[C@H](O)[C@H]8O)[C@H](O)[C@H]7O[C@@H]7O[C@H](CO)[C@@H](O)[C@H](O)[C@H]7O)C(C)(C)[C@@H]6CC[C@@]5(C)[C@]4(C)C[C@H]2O)[C@@H]3C1 [LYSIKOKIANOSIDE 1],Active,Active,0.85
CC1(C)CC[C@]23C(=O)O[C@@]4(CC[C@@H]5[C@@]6(C)CC[C@H](O[C@@H]7OC[C@H](O[C@@H]8O[C@H](CO)[C@@H](O)[C@H](O)[C@H]8O[C@@H]8OC[C@@H](O)[C@H](O)[C@H]8O)[C@H](O)[C@H]7O[C@@H]7O[C@H](CO)[C@@H](O)[C@H](O)[C@H]7O)C(C)(C)[C@@H]6CC[C@@]5(C)[C@]4(C)C[C@H]2O)[C@@H]3C1,Active,Active,> 12.5
C[C@@H]1O[C@@H](O[C@H]2[C@H](O[C@H]3CO[C@@H](O[C@H]4CC[C@]5(C)[C@H]6CC[C@]78OC[C@@]9(CCC(C)(C)C[C@H]97)[C@H](O)C[C@@]8(C)[C@]6(C)CC[C@H]5C4(C)C)[C@H](O[C@@H]4O[C@H](CO)[C@@H](O)[C@H](O)[C@H]4O)[C@H]3O)O[C@H](CO)[C@@H](O)[C@@H]2O)[C@H](O)[C@H](O)[C@H]1O,Active,Active,0.85
CC1(C)[C@@H](O[C@@H]2OC[C@H](O[C@@H]3O[C@H](CO)[C@@H](O)[C@H](O)[C@H]3O[C@@H]3OC[C@@H](O)[C@H](O)[C@H]3O)[C@H](O)[C@H]2O[C@@H]2O[C@H](CO)[C@@H](O)[C@H](O)[C@H]2O)CC[C@]2(C)[C@H]3CC[C@]45OC[C@@]6(CC[C@](C)(C=O)C[C@H]64)[C@H](O)C[C@@]5(C)[C@]3(C)CC[C@@H]12 [ARDISIACRISPIN A],Active,Active,7
CC1(C)CC[C@]23C(O)O[C@@]4(CC[C@@H]5[C@@]6(C)CC[C@H](O[C@@H]7OC[C@H](O[C@@H]8O[C@H](CO)[C@@H](O)[C@H](O)[C@H]8O[C@@H]8OC[C@@H](O)[C@H](O)[C@H]8O)[C@H](O)[C@H]7O[C@@H]7O[C@H](CO)[C@@H](O)[C@H](O)[C@H]7O)C(C)(C)[C@@H]6CC[C@@]5(C)[C@]4(C)C[C@H]2O)[C@@H]3C1 (some centres undefined),Active,Active,7
C[C@@H]1O[C@@H](O[C@H]2[C@H](O[C@H]3CO[C@@H](O[C@H]4CC[C@]5(C)[C@H]6CC[C@]78OC(O)[C@@]9(CCC(C)(C)C[C@H]97)[C@H](O)C[C@@]8(C)[C@]6(C)CC[C@H]5C4(C)C)[C@H](O[C@@H]4O[C@H](CO)[C@@H](O)[C@H](O)[C@H]4O)[C@H]3O)O[C@H](CO)[C@@H](O)[C@@H]2O)[C@H](O)[C@H](O)[C@H]1O (some centres undefined),Active,Active,> 12.5
